Measurements published in patent US6653081B2, “Methods for monitoring antiretroviral therapy and guiding therapeutic decision in the treatment of HIV/AIDS” (ViroLogic, Inc., priority 2000, dated 2003).

How the values were obtained:
[1] = test system: RTV-I135T; test: Phenotypic susceptibility assay, RTV-I135T; format: cell-based, HIV-1; conditions: site-directed I135T alone
From the text: (§1) The resistance test vectors containing a functional luciferase gene cassette were constructed and host cells were transfected with the resistance test vector DNA. The resistant test vectors contained patient-derived reverse transcriptase and protease sequences that were either susceptible or resistant to the antiretroviral agents, such as nucleoside reverse transcriptase inhibitors, (NRTIs) non-nucleoside reverse transcriptase inhibitors […] protease inhibitors. The resistance test vector viral particles produced by transfecting the resistance test vector DNA into host cells, either in the presence or absence of PRIs, were used to infect target host cells grown either in the absence of NRTIs or NNRTIs, or in the presence of increasing concentrations of the drug. The amount of luciferase activity produced in infected target host cells in the presence of varying concentrations of drug was compared to the amount of luciferase produced in infected target host cells in the absence of drug. “Drug resistance” was measured as the amount of drug required to inhibit by 50% the luciferase activity detected in the absence of drug (inhibitory concentration 50%, IC50). The IC50 values were determined by plotting percent drug inhibition vs. log10 drug concentration. Stimulation of viral replication was measured as the percent increase in luciferase activity detected when infection occurs in the presence of drug as compared to in the absence of drug.
(§2) Host cells were seeded in 10-cm-diameter dishes and were transfected several days after plating with resistance test vector plasmid DNA and the envelope expression vector. Transfections were performed using a calcium-phosphate precipitation procedure. The cell culture media containing the DNA precipitate was replaced with fresh medium, from one to 24 hours, after transfection. Cell culture media containing resistance test vector viral particles was harvested one to four days after transfection and was passed through a […] filter before being used to infect target host cells, or being stored at −80° C. HIV capsid protein (p24) levels in the harvested cell culture media were determined by an EIA method as described by the manufacturer (SAIC; Frederick, Md.). Before infection, target cells (293 and 293/T) were plated in cell culture media. Control infections were performed using cell culture media from mock transfections (no DNA) or transfections containing the resistance test vector plasmid DNA without the envelope expression plasmid. One to three or more days after infection, the media was removed and cell lysis buffer (Promega) was added to each well. Cell lysates were assayed for luciferase activity (FIG. 3). The inhibitory effect of the drug was determined using the following equation:
(§3) % luciferase inhibition=1−(RLUluc[drug]÷RLUluc)×100
(§4) where RLUluc [drug] is the Relative Light Unit of luciferase activity in infected cells in the presence of drug, and RLUluc is the Relative Light Unit of luciferase activity in infected cells in the absence of drug. IC50values were obtained from the sigmoidal curves that were generated from the data by plotting the percent inhibition of luciferase activity vs. the log10 drug concentration. The percent luciferase stimulation is the negative of the % inhibition calculated using the formula above.
(§5) A resistance test vector containing a single mutation, I135T, (RTV-I135T) was constructed and tested in the phenotypic assay described earlier. The results were compared to those determined using a genetically defined resistance test vector that was wild type at position 135. We determined the pattern of phenotypic susceptibility to the NNRTIs, delavirdine, nevirapine and efavirenz, in RTV-I135T.

[2] = test system: RTV-1033-3/184V; test: Phenotypic susceptibility assay, RTV-1033-3/184V; format: cell-based, HIV; conditions: RTV-1033-3 plus M184V
From the text: as §1, §2, §3, §4
A resistance test vector containing all of the mutations present in RTV-1033-3 in addition to M184V (RTV-1033-3/184V) was constructed and tested using the phenotypic assay described earlier. The results were compared to those determined using the parent RTV-1033-3. We determined the pattern of phenotypic susceptibility to the NNRTIs, delavirdine, nevirapine and efavirenz, in the mutated vector, RTV-1033-3/184V.

[3] = test system: RTV-K103N/I135T/V245E; test: Phenotypic susceptibility assay, RTV-K103N/I135T/V245E; format: cell-based, HIV-1; conditions: site-directed K103N + I135T + V245E
From the text: as §1, §2, §3, §4
as §5, with “three mutations, K103N, I135T and V245E (RTV-K103N/I135T/V245E)” for “a single mutation, I135T, (RTV-I135T)”, “positions 103, 135 and 245.” for “position 135.”, “RTV-K103N.” for “RTV-I135T.”

[4] = test system: RTV-K103N/I135T; test: Phenotypic susceptibility assay, RTV-K103N/I135T; format: cell-based, HIV-1; conditions: site-directed K103N + I135T
From the text: as §1, §2, §3, §4
as §5, with “two mutations, K103N and I135T (RTV-K103N/I135T)” for “a single mutation, I135T, (RTV-I135T)”, “position 103 and” for “position”, “RTV-K103N/I135T.” for “RTV-I135T.”

[5] = test system: RTV-011073/241V; test: Phenotypic susceptibility assay, RTV-011073/241V; format: cell-based, HIV; conditions: RTV-011073 with V241S reverted
From the text: as §1, §2, §3, §4
A resistance test vector containing all of the mutations present in RTV-011073 except for the V241S and the T277K was constructed and tested using the phenotypic assay described earlier. The results were compared to those determined using the parent RTV-011073. We determined the pattern of phenotypic susceptibility to the NNRTIs, delavirdine, nevirapine and efavirenz, in the reverted vector RTV-011073/241V/277T. […] A resistance test vector containing all of the mutations present in RTV-011073 except for the V241S was constructed and tested using the phenotypic assay described earlier. The results were compared to those determined using the parent RTV-011073. […]

[6] = test system: RTV-010829/245V-297E; test: Phenotypic susceptibility assay, RTV-010829/245V-297E; format: cell-based, HIV; conditions: for drug-dependent stimulation of viral replication: RTV-010829 with V245E to E297K reverted; for reductions in susceptibility compared to wild type control RTV: RTV-010829 with V245E, I270M, V276I, R277K, V292I, V293I, E297K reverted
From the text: as §1, §2, §3, §4
A resistance test vector containing all of the mutations present in RTV-010829 except for the V245E mutation (RTV-010829/245V) was constructed and tested using the phenotypic assay described earlier. The results were compared to those determined using the parent RTV-010829. We determined the pattern of phenotypic susceptibility to the NNRTIs, delavirdine, nevirapine and efavirenz, in the reverted vector RTV-010829/245V. […] A resistance test vector containing all of the mutations present in RTV-010829 except for the I270M (RTV-010829/270I) was constructed and tested using the phenotypic assay described earlier. […]

SMILES | drug-dependent stimulation of viral replication [1] | reductions in susceptibility compared to wild type control RTV [1] | drug-dependent stimulation of viral replication [2] | reduction in susceptibility compared to wild type control RTV [2] | drug-dependent stimulation of viral replication [3] | reductions in susceptibility compared to wild type control RTV [3] | drug-dependent stimulation of viral replication [4] | reductions in susceptibility compared to wild type control RTV [4] | drug-dependent stimulation of viral replication [5] | reductions in susceptibility compared to wild type control RTV [5] | drug-dependent stimulation of viral replication [6] | reductions in susceptibility compared to wild type control RTV [6]
CC(C)Nc1cccnc1N1CCN(C(=O)c2cc3cc(NS(C)(=O)=O)ccc3[nH]2)CC1 [delavirdine] | no drug-dependent stimulation | no reductions | ~100% | 5 fold | ~20% | 169 fold | no drug-dependent stimulation | 121 fold | no longer negative inhibition | 59 fold | no drug-dependent stimulation | 198 fold
O=C1Nc2ccc(Cl)cc2[C@@](C#CC2CC2)(C(F)(F)F)O1 [efavirenz] | no drug-dependent stimulation | no reductions | ~80% | 28 fold | no drug-dependent stimulation and not | 93 fold | no drug-dependent stimulation | 80 fold | no longer negative inhibition | 54 fold | no drug-dependent stimulation | 76 fold
Cc1ccnc2c1NC(=O)c1cccnc1N2C1CC1 [nevirapine] | no drug-dependent stimulation | no reductions | ~100% | > 600 fold | ~15% | 244 fold | no drug-dependent stimulation | 171 fold | no longer negative inhibition | 146 fold | no drug-dependent stimulation | 233 fold
